Experimental findings from patent publication US7855292B2, “Sulfonamide compounds” (Janssen Pharmaceutica NV, priority 2004, dated 2010) are described below.

One assay concerns the target T1, CCK2 receptor (Homo sapiens, UniProt P32239).
T1 construct: analyzed for ZFP expression as well as CCK2R induction upon addition of doxycycline to the culture medium; endogenous in cells
T1 sequence (P32239 1-447): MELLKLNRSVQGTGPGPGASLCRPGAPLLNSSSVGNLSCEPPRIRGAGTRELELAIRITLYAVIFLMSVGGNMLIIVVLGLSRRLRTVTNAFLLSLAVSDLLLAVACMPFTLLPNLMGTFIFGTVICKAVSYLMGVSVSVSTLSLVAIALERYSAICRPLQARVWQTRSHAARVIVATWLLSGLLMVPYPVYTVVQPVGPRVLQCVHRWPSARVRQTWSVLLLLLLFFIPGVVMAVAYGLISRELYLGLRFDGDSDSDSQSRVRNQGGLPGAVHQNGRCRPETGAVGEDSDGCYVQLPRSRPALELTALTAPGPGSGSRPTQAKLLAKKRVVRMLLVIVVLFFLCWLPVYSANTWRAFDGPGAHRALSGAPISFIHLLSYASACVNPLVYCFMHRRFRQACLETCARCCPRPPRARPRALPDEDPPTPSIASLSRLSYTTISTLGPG
The assay is described as follows: CCK2 binding assay ([125I]-BH-CCK-8S displacement, HEKZFP membranes). The following applies: membranes of doxycycline-induced HEKZFP cells, 20 pM [125I]-BH-CCK-8S, 60 min at 21±3° C.; for Ki: read-out: CCK2 pKi (converted). On the procedure: 2. CCK2 Assay Development and Data Generation
Zinc Finger Proteins (ZFP) specific for the CCK2R gene were identified by Sangamo Biosciences. The ZFP domain was fused with the herpes simplex virus VP16 activation domain, and the fusion protein was subsequently cloned into the pcDNA3 mammalian expression vector (Invitrogen, San Diego, Calif.). […] After 2 weeks of selection in culture medium containing […] Zeocin (Invitrogen), sixty drug-resistant stable clones were isolated and analyzed for ZFP expression as well as CCK2R induction upon addition of doxycycline to the culture medium.
HEKZFP cells were grown in DMEM supplemented with L-glutamine (2 mM), penicillin (50 units/mL) and streptomycin (50 μg/mL) and 10% FBS (v/v).
Membranes were prepared from the HEKZFP cells after induction. […] The thawed pellets were homogenized using a Polytron PT-10 (7×1 s). The homogenates were centrifuged for 5 min at 1500 rpm (600×g), and the resulting pellets were discarded. The supernatants were re-centrifuged in order to collect the receptor-membrane pellets (25 min 15,000 rpm; 39,800×g), which were re-suspended in buffer A.
The assay preparation was incubated for 1 h at 21±3° C., and then the assay was terminated by rapid filtration of the preparation under reduced pressure. The loaded filters were washed three times using undiluted PBS (100 μL), and then 100 μL of scintillation fluid was added to the filter plate. Bound radioactivity was determined using a Topcount (Packard BioScience, Meriden, Conn.) with a count time of 1 min. […] To validate the radioligand concentration and incubation time for the assay, saturation and kinetic binding studies were also conducted (see M. F. Morton, The Pharmacological Characterization of Cholecystokinin Receptors in the Human Gastrointestinal Tract. PhD Thesis, University of London, 2000). […] The assay was then terminated according to the procedure outlined above.
(§1) 3. Data Analysis for CCK1 and CCK2 Binding Assays
The pKi values were determined using the equation of Y.-C.
(§2) [formula] To circumvent problems associated with computer-assisted data analysis of compounds with low affinity, the data obtained in the current study were weighted according to a method described by Morton. In brief, 100% and 0% specific binding were defined independently using total binding and binding obtained in the presence of a high concentration of the reference antagonist, 2-NAP.

Another assay addresses T2, CCK-1 receptor (Homo sapiens, UniProt P32238).
T2 construct: expressed in transfected cells; host or cells: CHO-K1
T2 sequence (P32238 1-428): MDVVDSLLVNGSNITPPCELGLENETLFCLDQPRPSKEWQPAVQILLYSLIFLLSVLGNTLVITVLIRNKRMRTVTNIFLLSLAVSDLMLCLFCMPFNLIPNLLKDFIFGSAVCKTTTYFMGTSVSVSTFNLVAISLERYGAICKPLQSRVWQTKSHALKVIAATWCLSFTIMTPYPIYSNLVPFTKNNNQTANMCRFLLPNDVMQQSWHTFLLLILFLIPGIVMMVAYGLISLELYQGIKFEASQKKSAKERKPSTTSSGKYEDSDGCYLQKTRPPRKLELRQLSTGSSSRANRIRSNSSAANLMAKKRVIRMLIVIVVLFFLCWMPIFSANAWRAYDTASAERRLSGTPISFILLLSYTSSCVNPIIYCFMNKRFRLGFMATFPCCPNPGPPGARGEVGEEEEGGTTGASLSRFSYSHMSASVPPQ
The assay is described as follows: CCK1 binding assay ([125I]-BH-CCK-8S displacement, CHO-K1 membranes). As to conditions: membranes of CHO-K1 cells stably transfected with the CCK-1 receptor, 20 pM [125I]-BH-CCK-8S, 0.3 μM PD-134,308 present, 60 min at 21±3° C. On the procedure:
1. CCK1 Assay Development and Data Generation
CHO-K1 cells that had undergone stable transfection with the CCK-1 receptor were grown in DMEM supplemented with L-glutamine (2 mM), penicillin (50 units/mL) and streptomycin (50 μg/mL). Cells were cultured under continuous G418 selection (2 mM) and were harvested using a rubber cell scraper. CHO-K1 cells were sub-cultured a maximum of ten times before being reseeded from the original stocks.
Membranes were prepared from the stably transfected CHO-K1 cells. Frozen cell pellets (−40° C.) were thawed in 14 mL of buffer A (10 mM HEPES, 130 mM NaCl, 4.7 mM KCl, 5 mM MgCl, 1 mM EGTA and 15.4 mg/100 mL bacitracin at pH 7.2), adapted from Harper et al. (Br. J. Pharmacol. 1996, 118:1717-1726). The thawed pellets were homogenized using a Polytron PT-10 (7×1 s). The homogenates were centrifuged for 5 min at 1500 rpm (600×g), and the resulting pellets were discarded. The supernatants were re-centrifuged in order to collect the receptor-membrane pellets (25 min 15,000 rpm; 39,800×g), which were re-suspended in buffer A.
All assays were conducted in 96-well plates (GF/B millipore filter plates) using buffer A, with 0.3 μM PD-134,308, for the dilutions. The CCK-2 receptor ligand was included to eliminate the contribution of this receptor subtype to the binding. For the optimal cell number determination experiments 20 pM [^125I]-BH-CCK-8S (50 μL […] solution) was incubated with a range of cell concentrations ([…] to 12.5×10^5 cells/well) in a total volume of 150 μL. Total binding of [^125I]-BH-CCK-8S was determined in the presence of 15 μL of buffer A. Non-specific binding of [^125I]-BH-CCK-8S was determined in the presence of 15 μL of 100 μM 2-naphthalenesulphonyl L-aspartyl-(2-phenethyl)amide (2-NAP: see R. A. Hull et al. Br. J. Pharmacol. 1993, 108:734-740), a CCK-1 receptor selective antagonist that is structurally unrelated to the radioligand [^125I]-BH-CCK-8S. The assay preparation was incubated for 1 h at 21±3° C., and then the assay was terminated upon rapid filtration of the preparation under reduced pressure. The loaded filters were washed three times using undiluted PBS ([…]), and then the residues were transferred to 5 mL scintillation tubes. Bound radioactivity was determined using a gamma counter (count time=1 min). […] To validate the radioligand concentration and incubation time for the assay, saturation and kinetic binding studies were also conducted (see M. F. Morton, The Pharmacological Characterization of Cholecystokinin Receptors in the Human Gastrointestinal Tract. PhD Thesis, University of London, 2000). […] The assay was then terminated according to the procedure outlined above.
as §1
The pKi values were determined using the equation of Y.-C. Cheng and W. H. Prusoff (Biochem. Pharmacol., 1973, 22(23):3099-3108):
as §2

Where a name gives a salt, the structure may show the parent alone.

As to `O=C(N[C@@H](Cc1cccc([N+](=O)[O-])c1)C(=O)O)c1ccc(Cl)cc1NS(=O)(=O)c1cccc2nccnc12` [Example 84, (S)-2-[4-Chloro-2-(quinoxaline-5-sulfonylamino)-benzoylamino]-3-(3-nitro-phenyl)-propionic acid], the Ki at CCK2 receptor was 31.6 nM.

As to `O=C(N[C@@H](Cc1ccsc1)C(=O)O)c1ccc(Cl)cc1NS(=O)(=O)c1cccc2nccnc12` [Example 87, (S)-2-[4-Chloro-2-(quinoxaline-5-sulfonylamino)-benzoylamino]-3-thiophen-3-yl-propionic acid], the Ki on CCK2 receptor is 158 nM.

Turning to `O=C(N[C@@H](Cc1ccsc1)C(=O)O)c1ccc(Cl)cc1NS(=O)(=O)c1cccc2nsnc12` [Example 77, (S)-2-[2-(Benzo[1,2,5]thiadiazole-4-sulfonylamino)-4-chloro-benzoylamino]-3-thiophen-3-yl-propionic acid], on CCK2 receptor, the Ki is 31.6 nM.

`O=C(N[C@H](C(=O)O)C(c1ccc(Cl)cc1)c1ccc(Cl)cc1)c1ccc(Cl)cc1NS(=O)(=O)c1cccc2nsnc12` [Example 106, (S)-2-[2-(Benzo[1,2,5]thiadiazole-4-sulfonylamino)-4-chloro-benzoylamino]-3,3-bis-(4-chloro-phenyl)-propionic acid]: on CCK2 receptor, the “CCK2 pKi” value is 5.9.

Take `O=C(N[C@@H](Cc1ccc(F)c(F)c1)C(=O)O)c1ccc(Cl)cc1NS(=O)(=O)c1cccc2nccnc12` [Example 85, (S)-2-[4-Chloro-2-(quinoxaline-5-sulfonylamino)-benzoylamino]-3-(3,4-difluoro-phenyl)-propionic acid]: the Ki at CCK2 receptor was 63.1 nM.

Regarding `N#Cc1ccc(C[C@H](NC(=O)c2ccc(Cl)cc2NS(=O)(=O)c2cccc3nccnc23)C(=O)O)cc1` [Example 86, (S)-2-[4-Chloro-2-(quinoxaline-5-sulfonylamino)-benzoylamino]-3-(4-cyano-phenyl)-propionic acid], at CCK2 receptor, the Ki was 31.6 nM.

Regarding `O=C(N[C@@H](Cc1ccccc1)C(=O)O)c1ccc(I)cc1NS(=O)(=O)c1cccc2nccnc12` [Example 27, 2-[4-Iodo-2-(quinoxaline-5-sulfonylamino)-benzoylamino]-3-phenyl-propionic acid], the Ki at CCK2 receptor is 31.6 nM.

On to `C[C@@H](NC(=O)c1ccc(Cl)cc1NS(=O)(=O)c1cccc2nsnc12)C(O)(c1ccccc1)c1ccccc1` [Example 73, (R)-2-(Benzo[1,2,5]thiadiazole-4-sulfonylamino)-4-chloro-N-(2-hydroxy-1-methyl-2,2-diphenyl-ethyl)-benzamide], for which the Ki on CCK-1 receptor (read-out: CCK1 pKi (converted)) is 158 nM.

Turning to `CN(CCc1ccccn1)C(=O)c1ccc(Cl)cc1NS(=O)(=O)c1cccc2nsnc12` [Example 51, 2-(Benzo[1,2,5]thiadiazole-4-sulfonylamino)-4-chloro-N-methyl-N-(2-pyridin-2-yl-ethyl)-benzamide hydrochloride], the Ki at CCK2 receptor is 794 nM.

On to `O=C(N[C@@H](Cc1ccccc1)C(=O)O)c1ccc(Br)cc1NS(=O)(=O)c1cccc2nsnc12` [Example 25, 2-[2-(Benzo[1,2,5]thiadiazole-4-sulfonylamino)-4-bromo-benzoylamino]-3-phenyl-propionic acid], for which the Ki at CCK2 receptor is 39.8 nM.

Regarding `N#Cc1cccc(C[C@H](NC(=O)c2ccc(Cl)cc2NS(=O)(=O)c2cccc3nccnc23)C(=O)O)c1` [Example 63, (S)-2-[4-Chloro-2-(quinoxaline-5-sulfonylamino)-benzoylamino]-3-(3-cyano-phenyl)-propionic acid], the Ki at CCK2 receptor is 31.6 nM.

As for `O=C(N[C@H](Cc1ccc(Cl)c(Cl)c1)C(=O)O)c1ccc(Cl)cc1NS(=O)(=O)c1cccc2nsnc12` [Example 118, (R)-2-[2-(Benzo[1,2,5]thiadiazole-4-sulfonylamino)-4-chloro-benzoylamino]-3-(3,4-dichloro-phenyl)-propionic acid], the “CCK1 pKi” value at CCK-1 receptor was 7.1.

For the compound `O=C(N[C@@H](Cc1ccc(F)c(Br)c1)C(=O)O)c1cc(Cl)c(Cl)cc1NS(=O)(=O)c1cccc2nsnc12` [Example 157, (S)-2-[2-(Benzo[1,2,5]thiadiazole-4-sulfonylamino)-4,5-dichloro-benzoylamino]-3-(3-bromo-4-fluoro-phenyl)-propionic acid], the “CCK2 pKi” value on CCK2 receptor worked out at 8.0.

Regarding `O=C(N[C@@H](Cc1ccc(Cl)c(Cl)c1)C(=O)O)c1ccc(Cl)cc1NS(=O)(=O)c1cccc2nsnc12` [Example 117, (S)-2-[2-(Benzo[1,2,5]thiadiazole-4-sulfonylamino)-4-chloro-benzoylamino]-3-(3,4-dichloro-phenyl)-propionic acid], at CCK-1 receptor, the “CCK1 pKi” value was 6.6.

Turning to `O=C(N[C@@H](Cc1ccccc1)C(=O)O)c1ccc(I)cc1NS(=O)(=O)c1cccc2scnc12` [Example 28, 2-[2-(Benzothiazole-4-sulfonylamino)-4-iodo-benzoylamino]-3-phenyl-propionic acid], the Ki on CCK2 receptor was 79.4 nM.
